Results from ChEMBL document CHEMBL2202961, “Antiproliferative activity of salinomycin and its derivatives” (Bioorg Med Chem Lett, 2012).
In brackets after ≈: the same amount, converted by molar mass.

How the values were obtained:
[1] = system: BALB/3T3; assay: Cytotoxicity against mouse BALB/3T3 cells incubated for 72 hrs by MTT assay; format: cell-based; conditions: BALB/3T3, 72 h
[2] = system: HL-60; assay: Cytotoxicity against human HL60 cells incubated for 72 hrs by MTT assay; conditions: HL-60, 72 h
[3] = system: BALB/3T3; assay: Selectivity index, ratio of IC50 for mouse BALB/3T3 cells to IC50 doxorubicin-resistant human LoVo/DX cells
[4] = system: LoVo; assay: Cytotoxicity against human LoVo cells incubated for 72 hrs by MTT assay; format: functional, cell-based
[5] = system: BALB/3T3; assay: Selectivity index, ratio of IC50 for mouse BALB/3T3 cells to IC50 for human HL60 cells; format: functional
[6] = Cytotoxicity against doxorubicin-resistant human LoVo/DX cells incubated for 72 hrs by MTT assay; format: functional, cell-based
[7] = system: BALB/3T3; assay: Selectivity index, ratio of IC50 for mouse BALB/3T3 cells to IC50 for human vincristine-resistant human HL60/Vinc cells; format: functional
[8] = system: LoVo; assay: Selectivity index, ratio of IC50 for mouse BALB/3T3 cells to IC50 for human LoVo cells; format: functional
[9] = system: LoVo; assay: Resistance index, ratio of IC50 for doxorubicin-resistant human LoVo/DX cells to IC50 for parental human LoVo cells; format: functional
[10] = system: HL-60; assay: Resistance index, ratio of IC50 for vincristine-resistant human HL60/Vinc cells to IC50 for parental human HL60 cells; format: functional
[11] = Cytotoxicity against vincristine-resistant human HL60/Vinc cells incubated for 72 hrs by MTT assay; format: functional, cell-based
[12] = system: Staphylococcus aureus; assay: Antimicrobial activity against methicillin-resistant Staphylococcus aureus; format: functional

Row | SMILES | IC50 [1] [µM] | IC50 [2] [µM] | Ratio IC50 [3] | IC50 [4] [µM] | Ratio IC50 [5] | IC50 [6] [µM] | Ratio IC50 [7] | Ratio IC50 [8] | Ratio IC50 [9] | Ratio IC50 [10] | IC50 [11] [µM] | MIC [12] [µg/mL]
1 | CC[C@@H](C(=O)[C@@H](C)[C@@H](O)[C@H](C)[C@@H]1O[C@@H]([C@@H](CC)C(=O)Nc2ccccc2)CC[C@@H]1C)[C@H]1O[C@]2(C=C[C@@H](O)[C@]3(CC[C@@](C)([C@H]4CC[C@](O)(CC)[C@H](C)O4)O3)O2)[C@H](C)C[C@@H]1C | 7.08 | 3.79 | 2.21 | 4.11 | 1.86 | 3.21 | 1.64 | 1.72 | 0.78 | 1.14 | 4.31 | 
2 | CCCCNC(=O)[C@H](CC)[C@H]1CC[C@H](C)[C@H]([C@@H](C)[C@H](O)[C@H](C)C(=O)[C@H](CC)[C@H]2O[C@]3(C=C[C@@H](O)[C@]4(CC[C@@](C)([C@H]5CC[C@](O)(CC)[C@H](C)O5)O4)O3)[C@H](C)C[C@@H]2C)O1 | 8.21 | 3.88 | 2.56 | 4.04 | 2.12 | 3.26 | 1.55 | 2.03 | 0.81 | 1.37 | 5.31 | 
3 | CC[C@@H](C(=O)[C@@H](C)[C@@H](O)[C@H](C)[C@@H]1O[C@@H]([C@@H](CC)C(=O)NCc2ccccc2)CC[C@@H]1C)[C@H]1O[C@]2(C=C[C@@H](O)[C@]3(CC[C@@](C)([C@H]4CC[C@](O)(CC)[C@H](C)O4)O3)O2)[C@H](C)C[C@@H]1C | 7.26 | 3.63 | 2.19 | 4.02 | 2 | 3.31 | 1.21 | 1.81 | 0.82 | 1.66 | 6.02 | 
4 | CC[C@@H](C(=O)[C@@H](C)[C@@H](O)[C@H](C)[C@@H]1O[C@@H]([C@@H](CC)C(=O)NCCc2c[nH]c3ccccc23)CC[C@@H]1C)[C@H]1O[C@]2(C=C[C@@H](O)[C@]3(CC[C@@](C)([C@H]4CC[C@](O)(CC)[C@H](C)O4)O3)O2)[C@H](C)C[C@@H]1C | 9.98 | 3.52 | 3.59 | 3.45 | 2.84 | 2.78 | 2.31 | 2.9 | 0.81 | 1.22 | 4.31 | 
5 | CC[C@@H](C(=O)[C@@H](C)[C@@H](O)[C@H](C)[C@@H]1O[C@@H]([C@@H](CC)C(=O)NCCOCCOCCOC)CC[C@@H]1C)[C@H]1O[C@]2(C=C[C@@H](O)[C@]3(CC[C@@](C)([C@H]4CC[C@](O)(CC)[C@H](C)O4)O3)O2)[C@H](C)C[C@@H]1C | 39.1 | 24.9 | 1.28 | 29.9 | 1.57 | 30.6 | 1.34 | 1.31 | 1.03 | 1.17 | 29.1 | 
6 | CC[C@@H](C(=O)[C@@H](C)[C@@H](O)[C@H](C)[C@@H]1O[C@@H]([C@@H](CC)C(=O)On2nnc3ccccc32)CC[C@@H]1C)[C@H]1O[C@]2(C=C[C@@H](O)[C@]3(CC[C@@](C)([C@H]4CC[C@](O)(CC)[C@H](C)O4)O3)O2)[C@H](C)C[C@@H]1C | 31.9 | 1.84 | 4.83 | 4.11 | 17.33 | 6.61 | 6.08 | 7.76 | 1.61 | 2.85 | 5.25 | 1 (≈ 1.15 µM)
7 | CC[C@@H](C(=O)[C@@H](C)[C@@H](O)[C@H](C)[C@@H]1O[C@@H]([C@@H](CC)C(=O)Nc2ccc3c(c2)OCCOCCOCCOCCO3)CC[C@@H]1C)[C@H]1O[C@]2(C=C[C@@H](O)[C@]3(CC[C@@](C)([C@H]4CC[C@](O)(CC)[C@H](C)O4)O3)O2)[C@H](C)C[C@@H]1C | 25.5 | 3.08 | 4.51 | 6.24 | 8.27 | 5.65 | 3.71 | 4.08 | 0.91 | 2.23 | 6.87 | 
8 | CC[C@@H](C(=O)[C@@H](C)[C@@H](O)[C@H](C)[C@@H]1O[C@@H]([C@@H](CC)C(=O)NCCCN2CCOCC2)CC[C@@H]1C)[C@H]1O[C@]2(C=C[C@@H](O)[C@]3(CC[C@@](C)([C@H]4CC[C@](O)(CC)[C@H](C)O4)O3)O2)[C@H](C)C[C@@H]1C | 34.7 | 5.63 | 1.78 | 18 | 6.16 | 19.4 | 1.23 | 1.92 | 1.08 | 4.99 | 28.1 | 
9 | COc1cccc2c1C(=O)c1c(O)c3c(c(O)c1C2=O)C[C@@](O)(C(=O)CO)C[C@@H]3O[C@H]1C[C@H](N)[C@H](O)[C@H](C)O1 [DOXORUBICIN] | 1.91 |  |  | 0.38 |  | 12.1 |  |  |  |  | 0.91 | 
10 | CC[C@@H](C(=O)[C@@H](C)[C@@H](O)[C@H](C)[C@@H]1O[C@@H]([C@@H](CC)C(=O)O)CC[C@@H]1C)[C@H]1O[C@]2(C=C[C@@H](O)[C@]3(CC[C@@](C)([C@H]4CC[C@](O)(CC)[C@H](C)O4)O3)O2)[C@H](C)C[C@@H]1C [SALINOMYCIN] | 28.1 | 0.44 | 4.51 | 1.11 | 63.81 | 6.23 | 8.16 | 25.3 | 5.61 | 7.82 | 3.44 | 
